Target: T1, NMA1982 (Neisseria meningitidis, UniProt A1KVD0)
T1 construct: gene NMC1647
Experiment: biochemical

T1 sequence (A1KVD0 entry or part of it): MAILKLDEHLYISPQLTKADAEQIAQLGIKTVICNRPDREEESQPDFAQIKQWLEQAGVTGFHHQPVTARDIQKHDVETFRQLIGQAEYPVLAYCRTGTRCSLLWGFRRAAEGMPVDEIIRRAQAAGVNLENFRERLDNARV

[O]=[V]([OH])([OH])[OH] [sodium orthovanadate]
IC50: 161 µM
